The structures appear in SMILES notation.

Here are results for one compound from patent US7071218B2, “N-substituted heterocycles for the treatment of hypercholesteremia, dyslipidemia and other metabolic disorders; cancer, and other diseases” (Incyte San Diego Incorporated, priority 2001, dated 2006).

The test system of assay [1] is human cancer cell lines (A549, MDA-MB-468, PC-3, Bx-PC3). Briefly: MTT anti-cancer assay, the other cancer cell lines of the panel. Format: cell-based. Conditions: at 10 μM, 6 days, cell lines other than MDA-MB-468 (A549, PC-3, Bx-PC3). The source says: The anti-cancer activity of the compounds of the invention herein have been tested in in vitro assays using a microculture assay with 3-(4,5-dimethylthiazol-2-yl)-2,5-diphenyltetrazolium bromide (“MTT”) a test well known to those skilled in the art. This assay has an advantage over in vivo assay in that results are obtained within a week as opposed to several months. The assay can be carried out in 96-well microtiter plates. The MTT assay is based on the production of a dark blue formazan product by dehydrogenase in the mitochondria of live tumor cells after exposure to drug for 6 days [M. C. […] Thus, only live cells are stained and can be measured at 595 nm. […]
Treatment: Before commencing drug treatment, cells were replenished with media containing 0.5% FCS. […] As an end point, the amount of surviving cells (Live cells) was measured using a standard […] assay (MTT based), and calculated as percentage of cells treated with vehicle (DMSO) alone (% control).
MTT assay: The assay is based on the cleavage of the yellow tetrazolium salt MTT to purple formazan crystals by dehydrogenase activity in active mitochondria. […] The formazan crystals formed are solubilized and the resulting colored solution is quantified using a scanning multiwell spectrophotometer. […]
In general terms: Formazan colour is commonly taken as a measure of viable cells.

Assay [2] concerns LXR. Briefly: In vitro transactivation assay in CV-1 cells, antagonism of T0901317-induced Gal-LXR activation. In kind it is cell-based. The following applies: at 10 μM, with 1 μM agonist T0901317, dose-dependent. An excerpt:
In vitro screens such as the transactivation assay can be used to measure the ability of a compound to inhibit a nuclear receptor regulating lipid or carbohydrate uptake, synthesis or metabolism. In the assay described herein compounds can be identified that can inhibit activation of the following nuclear receptors: LXR, PPARα, PPARγ and FXR. This activity can be useful to treat lipid disorders such as hypercholesteremia and obesity.
Cell line: Kidney Green Monkey CV-1 cells.
Growing culturing medium: Dulbecco's modified Eagle's medium (DMEM) supplememnted with 10% fetal calf serum (FCS).
Procedure: CV-1 cells were plated in 48 well-plate culture plates, at a density of 10,000 cells/well, 24 h prior to transfection. One to three hours before transfection, cells were fed with fresh medium. A modified calcium phosphate precipitation procedure was used for transient transfection (Pfahl, M. et al., 1990, Methods in Enzymology 189: 256).
Typically, 40 ng reporter plasmid and 20 ng of each receptor expression vector were mixed, together with 10 ng of β-galactosidase control plasmid (pCH110, Pharmacia, Piscataway, N.J.) and Bluescript plasmid to obtain a total of 400 ng DNA per well. To this mixture 1 μl of 2.5M CaCl2 and 10 μl of BBS buffer, pH 6.95, were added afterward. […]

Compound `CN(C)c1cc2c(cc1-c1ccc3cc(/C=C4\SC(=S)N(CC(=O)O)C4=O)ccc3c1)C(C)(C)CCC2(C)C` [Compound 7, {5-[6-(3-Dimethylamino-5,5,8,8-tetramethyl-5,6,7,8-tetrahydro-naphthalen-2-yl)-naphthalen-2-ylmethylene]-4-oxo-2-thioxo-thiazolidin-3-yl}-acetic acid] showed a cells killed in assay [1] not above 50%. In assay [2], the “inhibition of T0901317-induced LXR activation” value is 80–90%.
